Measured values taken from US20240239755A1, “SUBSTITUTED PYRIDAZINONES, SALTS OR N-OXIDES THEREOF AND THEIR USE AS HERBICIDALLY ACTIVE SUBSTANCES” (Bayer Aktiengesellschaft, priority 2021, published 2024).

Key:
Format in all cases: in vivo
Kochia scoparia (KCHSC) [1] = assay: Herbicidal pre-emergence action, 1280 g/ha (Table A4); conditions: visual grading after ca. 3 weeks vs untreated controls
Summary of the method: (§1)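 Pre-emergence soil-surface spray, sandy loam, mono-/dicot double sowings per pot; WP or EC formulations, aqueous, +0.5% additive, 600 L/ha water. Greenhouse, optimum conditions. Visual % damage vs untreated at ca. 3 wk (100% = dead).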

[2] = test system: Abutilon theophrasti (ABUTH); assay: Herbicidal post-emergence action, 320 g/ha, ABUTH; conditions: visual grading after ca. 3 weeks
Summary of the method: (§2)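 Post-emergence spray at single-leaf stage; WP/EC in aqueous suspension/emulsion, 0.5% additive, 600 L water/ha. Greenhouse ~3 wk, visual rating vs untreated: 0% = as control, 100% = plants dead.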

Stellaria media (STEME) [3] = assay: Herbicidal pre-emergence action, 320 g/ha, STEME; conditions: visual grading after ca. 3 weeks
Summary of the method: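 Weed seeds sown in sandy loam pots; WP or EC formulations applied pre-emergence to the covering soil surface at 320 g/ha with 0.5% additive in 600 L water/ha. Greenhouse growth; visual damage scored after ca. 3 weeks versus untreated controls (100% = plants died, 0% = as control).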

[4] = test system: Abutilon theophrasti (ABUTH); assay: Herbicidal post-emergence action, 1280 g/ha (Table B1); conditions: visual assessment after ca. 3 weeks vs untreated controls
Summary of the method: (§3)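 Post-emergence greenhouse pot test: weeds in sandy loam sprayed at single-leaf stage, 2–3 weeks after sowing, with WP or EC formulations plus 0.5% additive at 600 L water/ha. Effect scored visually ca. 3 weeks later versus untreated controls, 0% = as control, 100% = plants dead.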

Stellaria media (STEME) [5] = assay: Herbicidal pre-emergence action, 1280 g/ha (Table A9); conditions: visual grading after ca. 3 weeks vs untreated controls
Summary of the method: as §1

Veronica persica (VERPE) = assay: Herbicidal post-emergence action, 1280 g/ha, VERPE; conditions: visual grading vs untreated controls
Summary of the method: (§4)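 Pot-grown weeds in sandy loam sprayed post-emergence at the single-leaf stage, 2–3 weeks after sowing, with WP or EC formulations plus 0.5% additive in 600 L water/ha at 1280 g/ha. After ca. 3 weeks in the greenhouse, damage scored visually as % effect versus untreated controls (100% = plants dead).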

Kochia scoparia (KCHSC) [6] = assay: Herbicidal post-emergence action, 1280 g/ha (Table B4); conditions: visual assessment after ca. 3 weeks vs untreated controls
Summary of the method: as §3

[7] = test system: Matricaria inodora (MATIN); assay: Herbicidal pre-emergence action, 320 g/ha (Table C3); conditions: visual grading after ca. 3 weeks vs untreated controls
Text: Seeds of mono- and dicotyledonous weed plants were sown in plastic pots (double sowings with one species of mono- and one species of dicotyledonous weed plants per pot), in sandy loam, and covered with soil. The compounds according to the invention, formulated in the form of wettable powders (WP) or as emulsifiable concentrates (EC), were applied to the surface of the covering soil as an aqueous suspension or as an emulsion, with the addition of 0.5% of an additive, at an application rate of 600 litres of water per hectare (converted). Following treatment, the pots were placed in a greenhouse and kept under optimum growth conditions for the test plants. The visual grading of the damage to the test plants was carried out after ca. 3 weeks in comparison to untreated controls (herbicidal effect in percent (%): 100% effect=plants have died, 0% effect=as control plants). Tables C1 to C6 below, show the effects of selected compounds of the general formula (I) according to Table 1 on various harmful plants using an application rate corresponding to 320 g/ha obtained by the experimental procedure mentioned above.

[8] = test system: Matricaria inodora (MATIN); assay: Herbicidal pre-emergence action, 1280 g/ha (Table A6); conditions: visual grading after ca. 3 weeks vs untreated controls
Summary of the method: as §1

Stellaria media (STEME) [9] = assay: Herbicidal post-emergence action, 1280 g/ha (Table B9); conditions: visual assessment after ca. 3 weeks vs untreated controls
Summary of the method: as §3

Stellaria media (STEME) [10] = assay: Herbicidal post-emergence action, 320 g/ha, STEME; conditions: visual grading after ca. 3 weeks
Summary of the method: as §2

Lolium rigidum (LOLRI) [11] = assay: Herbicidal pre-emergence action, 1280 g/ha (Table A5); conditions: visual grading after ca. 3 weeks vs untreated controls
Summary of the method: as §1

[12] = test system: Abutilon theophrasti (ABUTH); assay: Herbicidal pre-emergence action, 1280 g/ha (Table A1); conditions: visual grading after ca. 3 weeks vs untreated controls
Summary of the method: as §1

[13] = test system: Amaranthus retroflexus (AMARE); assay: Herbicidal post-emergence action, 1280 g/ha, AMARE; conditions: visual grading vs untreated controls
Summary of the method: as §4

[14] = test system: Amaranthus retroflexus (AMARE); assay: Herbicidal post-emergence action, 320 g/ha, AMARE; conditions: visual grading after ca. 3 weeks
Summary of the method: as §2

[15] = test system: Digitaria sanguinalis (DIGSA); assay: Herbicidal post-emergence action, 1280 g/ha (Table B2); conditions: visual assessment after ca. 3 weeks vs untreated controls
Text: (§5) Seeds of mono- and dicotyledonous weed plants were sown in plastic pots (double sowings with one species of mono- and one species of dicotyledonous weed plants per pot), in sandy loam, covered with soil and grown under controlled growth conditions. 2 to 3 weeks after sowing, the test plants were sprayed in the single-leaf stage. The compounds according to the invention, formulated in the form of wettable powders (WP) or as emulsifiable concentrates (EC), were sprayed onto the green plant parts as an aqueous suspension or as an emulsion, with the addition of 0.5% of an additive, at an application rate of 600 litres of water per hectare (converted). The test plants were placed in the greenhouse for ca. 3 weeks under optimum growth conditions, and then the effect of the preparations was assessed visually in comparison with untreated controls (herbicidal effect in percent (%): 100% effect=plants have died, 0% effect=as control plants). Tables B1 to B11 below, show the effects of selected compounds of the general formula (I) according to Table 1 on various harmful plants using an application rate corresponding to 1280 g/ha obtained by the experimental procedure mentioned above.

Setaria viridis (SETVI) = assay: Herbicidal post-emergence action, 1280 g/ha (Table B8); conditions: visual assessment after ca. 3 weeks vs untreated controls
Text: as §5

[16] = test system: Amaranthus retroflexus (AMARE); assay: Herbicidal pre-emergence action, 1280 g/ha (Table A11); conditions: visual grading after ca. 3 weeks vs untreated controls
Summary of the method: as §1

[17] = test system: Matricaria inodora (MATIN); assay: Herbicidal post-emergence action, 1280 g/ha (Table B6); conditions: visual assessment after ca. 3 weeks vs untreated controls
Summary of the method: as §3

Lolium rigidum (LOLRI) [18] = assay: Herbicidal post-emergence action, 1280 g/ha (Table B5); conditions: visual assessment after ca. 3 weeks vs untreated controls
Summary of the method: as §3

[19] = test system: Echinochloa crus-galli (ECHCG); assay: Herbicidal post-emergence action, 1280 g/ha (Table B3); conditions: visual assessment after ca. 3 weeks vs untreated controls
Text: as §5

Structure (SMILES)	herbicidal effect ABUTH [2] [%]	herbicidal effect ABUTH [4] [%]	herbicidal effect VERPE (Veronica persica (VERPE)) [%]	herbicidal effect KCHSC (Kochia scoparia (KCHSC) [6]) [%]	herbicidal effect MATIN [8] [%]	herbicidal effect STEME (Stellaria media (STEME) [9]) [%]	herbicidal effect STEME (Stellaria media (STEME) [10]) [%]	herbicidal effect LOLRI (Lolium rigidum (LOLRI) [11]) [%]	herbicidal effect AMARE [13] [%]	herbicidal effect AMARE [14] [%]	herbicidal effect DIGSA [15] [%]	also measured
Cc1nn(C)c(=O)c(Oc2cc(Cl)cc(Cl)c2)c1O [Example I-027]	90	90	90	90	100	90	90	100	100	90		herbicidal effect KCHSC (Kochia scoparia (KCHSC) [1]): 90%; herbicidal effect STEME (Stellaria media (STEME) [3]): 100%; herbicidal effect STEME (Stellaria media (STEME) [5]): 100%; herbicidal effect MATIN [7]: 100%; herbicidal effect ABUTH [12]: 100%
Cc1nn(C)c(=O)c(Oc2ccc(F)c(Cl)n2)c1O [Example I-052]											90	
CCOC(=O)Oc1c(C)nn(C)c(=O)c1Oc1ccc(F)cc1C1CC1 [Example I-034]	90	90	90	90	100	90	90	100	100	90	90	herbicidal effect SETVI (Setaria viridis (SETVI)): 90%; herbicidal effect AMARE [16]: 90%; herbicidal effect MATIN [17]: 90%; herbicidal effect LOLRI (Lolium rigidum (LOLRI) [18]): 90%; herbicidal effect ECHCG [19]: 90%
